Test results: patent publication US8486986B2, “Microbiocides” (Syngenta Crop Protection LLC, priority 2007, dated 2013)

- melting point: 126 to 130 °C
Compound: CC(Cc1c(-c2ccc(F)cc2)sc(Cl)c1Cl)NC(=O)c1cn(C)nc1C(F)(F)F (stereo not shown) [Compound 7.72, 1-methyl-3-trifluoromethyl-1H-pyrazole-4-carboxylic acid {2-[4,5-dichloro-2-(4-fluorophenyl)-thiophen 3-yl]1-methylethyl}amide]
